From US20220387429A1, “USE OF IMIDAZOPYRIMIDINE OR IMIDAZOTRIAZINE COMPOUND FOR PREVENTION, ALLEVIATION, OR TREATMENT OF DEVELOPMENTAL DISABILITY” (SK BIOPHARMACEUTICALS CO., LTD., priority 2019, published 2022)

Legend:
[1] = tested on: Fmr1 gene knockout mouse model; assay: Open field test; format: in vivo; conditions: Fmr1 gene knockout mice; 2 mg/kg intraperitoneally twice a day for 6 weeks; versus wild-type mice, P value of 0.0001 or less
Description: (§1) An Fmr1 gene knockout mouse model was used as an animal model of fragile X syndrome. This model lacks FMRP protein due to disruption of the Fmr1 gene. Typical phenotypes of this mouse model include audiogenic seizure, hyperlocomotor activity, cognitive deficit, concentration deficit disorder, and the like.
Male Fmr1 C57BL/6J knock-out mice derived from the early group imported from Jackson Laboratories were used in the experiments. The experimental animals were raised in a light-controlled environment (illuminated for 12 hours/nonilluminated for 12 hours) and maintained at a temperature of 21° C.±2° C. and a relative humidity of about 55%±5%. Food and water were ad libitum fed. […]
After the vehicle or test compound was administered intraperitoneally at a dose of 2 mg/kg twice a day for 6 weeks, an open field test was performed to observe the efficacy behavior of mice who fearlessly stepped out to the center of the open field. […] The number of times the mouse crossed the center of the open field was measured by the breakage of the horizontal beam due to the mouse's movement. […]
(§2) After data analysis by ANOVA, the effect was defined as significant when p<0.05. All results were expressed as mean±SEM.

[2] = tested on: Fmr1 gene knockout mouse model; assay: Marble burying test; format: in vivo; conditions: Fmr1 gene knockout mice; 2 mg/kg intraperitoneally twice a day for 6 weeks; versus vehicle-administered knockout group
Description: as §1
Male Fmr1 C57BL/6J knock-out mice derived from the early group imported from Jackson Laboratories were used in the experiments. The experimental animals were raised in a light-controlled environment (illuminated for 12 hours/nonilluminated for 12 hours) and maintained at a temperature of 21° C.±2° C. and a relative humidity of about 55%±5%. Food and water were ad libitum fed. An anticonvulsant efficacy experiment on audiogenic seizure, a contextual fear conditioning experiment, an open field test, and a marble burying test in the Fmr1 gene knockout mouse model was performed by Fragile X Syndrome Drug Validation Initiative (FRAXA-DVI). […]
After the vehicle or test compound was administered intraperitoneally at a dose of 2 mg/kg twice a day for 6 weeks, a hippocampal function-dependent marble burying test was performed. […] The mouse was placed and left for 30 minutes, then the number of marbles buried by the mouse was counted.
as §2

[3] = tested on: Fmr1 gene knockout mouse model; assay: Audiogenic seizure test, anticonvulsant efficacy; format: in vivo; conditions: Fmr1 gene knockout mice, 2 mg/kg intraperitoneally twice a day for 6 weeks
Description: as §1
(§3) Male Fmr1 C57BL/6J knock-out mice derived from the early group imported from Jackson Laboratories were used in the experiments. The experimental animals were raised in a light-controlled environment (illuminated for 12 hours/nonilluminated for 12 hours) and maintained at a temperature of 21° C.±2° C. and a relative humidity of about 55%±5%. Food and water were ad libitum fed. An anticonvulsant efficacy experiment on audiogenic seizure, a contextual fear conditioning experiment, an open field test, and a marble burying test in the Fmr1 gene knockout mouse model was performed by Fragile X Syndrome Drug Validation Initiative (FRAXA-DVI). The mice were randomly divided into groups and the test was performed under illumination.
(§4) The test compound was dissolved in 10% DMSO (dimethylsulfoxide)+30% PEG 300 in DW (distilled water), and administered intraperitoneally at a dose of 2 mg/kg twice a day for 6 weeks. To a control group, vehicle (10% DMSO (dimethylsulfoxide)+30% PEG 300 in DW (distilled water)) was administered.
(§5) Ten mice per group were used.
(§6) After the vehicle or test compound was administered intraperitoneally at a dose of 2 mg/kg twice a day for 6 weeks, the mice were placed in a chamber and exposed to an alarm. The response of the mice during the test was evaluated numerically by the following criteria according to the intensity of seizure, and the survival rate was also observed.
(§7) 1: Wild running and jumping

[4] = tested on: Fmr1 gene knockout mouse model; assay: Contextual fear conditioning experiment; format: in vivo; conditions: Fmr1 gene knockout mice; 2 mg/kg intraperitoneally twice a day for 6 weeks; versus vehicle-administered knockout group
Description: as §1, §3
The test compound was dissolved in 10% DMSO (dimethylsulfoxide)+30% PEG 300 in DW (distilled water), and administered intraperitoneally at a dose of 2 mg/kg twice a day for 6 weeks. […]
as §2

[5] = tested on: Wild-type mice; assay: Audiogenic seizure test in wild-type mice; format: in vivo, mouse; conditions: 2 mg/kg intraperitoneally twice a day for 6 weeks
Description: [The source words this procedure for another variant and reports this variant under the same test.] as §3, §4, §5, §6, §7

SMILES: Fc1ccc(-c2cnc3nc(COc4ccccn4)cn3c2)c(C(F)(F)F)c1 [test compound, 6-[4-fluoro-2-(trifluoromethyl)phenyl]-2-(2-pyridyloxymethyl)imidazo[1,2-a]pyrimidine]
- Number of times the mouse crossed the center (open field, FIG. 2) [1]: significant increase in movement compared to the wild-type mice
- Number of marbles buried (FIG. 3) [2]: increased compared to that in the vehicle-administered group of Fmr1 gene knockout mice
- Seizures of 3 or more points ([3]; mice affected/mice in group): 5/10
- Wild running ([3]; mice affected/mice in group): 6/10
- Vulnerability to audiogenic seizure ([3]; proportion of wild running mice, vehicle group 90%, 2 mg/kg): 60%
- Survival rate ([3]; survivors/mice in group): 5/10
- Freezing behavior (contextual fear conditioning, FIG. 1) [4]: significantly increased freezing behavior compared to the vehicle-administered group
- Audiogenic seizure phenotype [5]: no mice showed audiogenic seizure phenotype
- Seizures of 3 or more points ([5]; mice affected/mice in group): 0/10
- Wild running ([5]; mice affected/mice in group): 0/10
- Vulnerability to audiogenic seizure ([5]; proportion of wild running mice): 0%
- Survival rate ([5]; survivors/mice in group): 10/10
